Laboratory results from article PMC3365614 (Cancer Chemotherapy and Pharmacology, 2012).

How the values were obtained:
[1] = for Plasma concentration, effect of flavopiridol: immediately prior to (24 h) vs end of 1-hr flavopiridol infusion (25 h) on day 2
[2] = assay type: in vivo, human
ABCG2 = details: cited from earlier work
[3] = 1-hr infusions of flavopiridol as a single agent; cited from earlier work
human serum proteins = details: cited from earlier work

Plasma concentration, effect of flavopiridol [1] | AUC of the metabolite CGP74588, effect of flavopiridol ([1]; presence vs absence of flavopiridol, P=0.84) | AUC of imatinib, lower in the presence of flavopiridol ([1]; on average, presence vs absence of flavopiridol, p=0.022) [%] | SMILES | mean flavopiridol clearance (per body surface area) ([2]; 1-hr infusions of 30, 45 or 60 mg/m^2 with 400 or 600 mg/day imatinib, cycle 1) [L/hr/m^2] | clearance ([2]; human, plasma, intravenous) [mL/min] | half-life ([2]; human, plasma, intravenous) [h] | ABCG2 substrate status (ABCG2) | flavopiridol clearance, previously reported [3] [L/hr/m^2] | binding to human serum proteins (human serum proteins) | ABCG2 inhibition (ABCG2)
increase | not significantly affected |  | Cc1ccc(NC(=O)c2ccc(CN3CCNCC3)cc2)cc1Nc1nccc(-c2cccnc2)n1 [CGP74588] |  |  |  |  |  |  | 
 |  |  | CN1CC[C@H](c2c(O)cc(O)c3c(=O)cc(-c4ccccc4Cl)oc23)[C@H](O)C1 [flavopiridol] | 13.2 | 427 | 2.33 ± 0.97 | substrate | 13.8 | bind tightly | 
did not affect |  | 21 | Cc1ccc(NC(=O)c2ccc(CN3CCN(C)CC3)cc2)cc1Nc1nccc(-c2cccnc2)n1 [imatinib] |  |  |  |  |  |  | inhibitor
